Assay results from ChEMBL document CHEMBL1671627, “Increasing trends in antimicrobial resistance among clinically important anaerobes and Bacteroides fragilis isolates causing nosocomial infections: emerging resistance to carbapenems” (2008).
Values after ≈ are worked out from the molar mass of the structure shown.

Legend:
[1] = tested on: Prevotella bivia; assay: Antibacterial activity against Prevotella bivia assessed as resistant isolates by CLSI agar dilution method; format: functional
[2] = tested on: Phocaeicola vulgatus; assay: Antibacterial activity against beta-lactamase producing Bacteroides vulgatus assessed as resistant isolates by CLSI agar dilution method; format: functional
[3] = tested on: Prevotella melaninogenica; assay: Antibacterial activity against Prevotella melaninogenica by CLSI agar dilution method; format: functional
[4] = tested on: Fusobacterium mortiferum; assay: Antibacterial activity against Fusobacterium mortiferum assessed as susceptible isolates by CLSI agar dilution method; format: functional
[5] = tested on: Prevotella intermedia; assay: Antibacterial activity against Prevotella intermedia assessed as resistant isolates by CLSI agar dilution method; format: functional
[6] = tested on: Bacteroides fragilis; assay: Antibacterial activity against Bacteroides fragilis assessed as resistant isolates by CLSI agar dilution method; format: functional
[7] = tested on: Bacteroides uniformis; assay: Antibacterial activity against beta-lactamase producing Bacteroides uniformis assessed as susceptible isolates by CLSI agar dilution method; format: functional
[8] = tested on: Fusobacterium nucleatum; assay: Antibacterial activity against Fusobacterium nucleatum by CLSI agar dilution method; format: functional
[9] = tested on: Parvimonas micra; assay: Antibacterial activity against beta-lactamase producing Micromonas micros assessed as susceptible isolates by CLSI agar dilution method; format: functional
[10] = tested on: Peptostreptococcus anaerobius; assay: Antibacterial activity against beta-lactamase producing Peptostreptococcus anaerobius assessed as resistant isolates by CLSI agar dilution method; format: functional
[11] = tested on: Bacteroides thetaiotaomicron; assay: Antibacterial activity against beta-lactamase producing Bacteroides thetaiotaomicron assessed as resistant isolates by CLSI agar dilution method; format: functional
[12] = tested on: Fusobacterium nucleatum; assay: Antibacterial activity against Fusobacterium nucleatum assessed as resistant isolates by CLSI agar dilution method; format: functional
[13] = tested on: Prevotella bivia; assay: Antibacterial activity against Prevotella bivia assessed as susceptible isolates by CLSI agar dilution method; format: functional
[14] = tested on: Fusobacterium nucleatum; assay: Antibacterial activity against Fusobacterium nucleatum assessed as susceptible isolates by CLSI agar dilution method; format: functional
[15] = tested on: Fusobacterium varium; assay: Antibacterial activity against Fusobacterium varium by CLSI agar dilution method; format: functional
[16] = tested on: Bacteroides uniformis; assay: Antibacterial activity against beta-lactamase producing Bacteroides uniformis assessed as resistant isolates by CLSI agar dilution method; format: functional
[17] = tested on: Prevotella buccae; assay: Antibacterial activity against Prevotella buccae assessed as resistant isolates by CLSI agar dilution method; format: functional, Segatella buccae
[18] = tested on: Parvimonas micra; assay: Antibacterial activity against beta-lactamase producing Micromonas micros assessed as resistant isolates by CLSI agar dilution method; format: functional
[19] = tested on: Finegoldia magna; assay: Antibacterial activity against beta-lactamase producing Finegoldia magna assessed as susceptible isolates by CLSI agar dilution method; format: functional
[20] = tested on: Peptoniphilus asaccharolyticus; assay: Antibacterial activity against beta-lactamase producing Peptoniphilus asaccharolyticus assessed as susceptible isolates by CLSI agar dilution method; format: functional
[21] = tested on: Prevotella melaninogenica; assay: Antibacterial activity against Prevotella melaninogenica assessed as resistant isolates by CLSI agar dilution method; format: functional
[22] = tested on: Bacteroides thetaiotaomicron; assay: Antibacterial activity against beta-lactamase producing Bacteroides thetaiotaomicron assessed as susceptible isolates by CLSI agar dilution method; format: functional
[23] = tested on: Phocaeicola vulgatus; assay: Antibacterial activity against beta-lactamase producing Bacteroides vulgatus assessed as susceptible isolates by CLSI agar dilution method; format: functional
[24] = tested on: Bacteroides caccae; assay: Antibacterial activity against beta-lactamase producing Bacteroides caccae assessed as susceptible isolates by CLSI agar dilution method; format: functional
[25] = tested on: Fusobacterium necrophorum; assay: Antibacterial activity against Fusobacterium necrophorum assessed as resistant isolates by CLSI agar dilution method; format: functional
[26] = tested on: Clostridium tertium; assay: Antibacterial activity against beta-lactamase producing Clostridium tertium assessed as resistant isolates by CLSI agar dilution method; format: functional
[27] = tested on: Fusobacterium varium; assay: Antibacterial activity against Fusobacterium varium assessed as susceptible isolates by CLSI agar dilution method; format: functional
[28] = tested on: Bacteroides caccae; assay: Antibacterial activity against beta-lactamase producing Bacteroides caccae assessed as resistant isolates by CLSI agar dilution method; format: functional
[29] = tested on: Bacteroides thetaiotaomicron; assay: Antibacterial activity against beta-lactamase producing Bacteroides thetaiotaomicron by CLSI agar dilution method; format: functional
[30] = tested on: Prevotella buccae; assay: Antibacterial activity against Prevotella buccae assessed as susceptible isolates by CLSI agar dilution method; format: functional, Segatella buccae
[31] = tested on: Bacteroides caccae; assay: Antibacterial activity against beta-lactamase producing Bacteroides caccae by CLSI agar dilution method; format: functional
[32] = tested on: Clostridium septicum; assay: Antibacterial activity against beta-lactamase producing Clostridium septicum by CLSI agar dilution method; format: functional
[33] = tested on: Bacteroides uniformis; assay: Antibacterial activity against beta-lactamase producing Bacteroides uniformis by CLSI agar dilution method; format: functional
[34] = tested on: Peptostreptococcus anaerobius; assay: Antibacterial activity against beta-lactamase producing Peptostreptococcus anaerobius by CLSI agar dilution method; format: functional
[35] = tested on: Prevotella bivia; assay: Antibacterial activity against Prevotella bivia by CLSI agar dilution method; format: functional
[36] = tested on: Fusobacterium mortiferum; assay: Antibacterial activity against Fusobacterium mortiferum by CLSI agar dilution method; format: functional
[37] = tested on: Fusobacterium necrophorum; assay: Antibacterial activity against Fusobacterium necrophorum by CLSI agar dilution method; format: functional
[38] = tested on: Clostridium paraputrificum; assay: Antibacterial activity against beta-lactamase producing Clostridium paraputrificum assessed as susceptible isolates by CLSI agar dilution method; format: functional
[39] = tested on: Prevotella intermedia; assay: Antibacterial activity against Prevotella intermedia by CLSI agar dilution method; format: functional
[40] = tested on: Fusobacterium necrophorum; assay: Antibacterial activity against Fusobacterium necrophorum assessed as susceptible isolates by CLSI agar dilution method; format: functional
[41] = tested on: Clostridium paraputrificum; assay: Antibacterial activity against beta-lactamase producing Clostridium paraputrificum assessed as resistant isolates by CLSI agar dilution method; format: functional
[42] = tested on: Fusobacterium varium; assay: Antibacterial activity against Fusobacterium varium assessed as resistant isolates by CLSI agar dilution method; format: functional
[43] = tested on: Clostridium septicum; assay: Antibacterial activity against beta-lactamase producing Clostridium septicum assessed as susceptible isolates by CLSI agar dilution method; format: functional
[44] = tested on: Peptostreptococcus anaerobius; assay: Antibacterial activity against beta-lactamase producing Peptostreptococcus anaerobius assessed as susceptible isolates by CLSI agar dilution method; format: functional
[45] = tested on: Clostridium paraputrificum; assay: Antibacterial activity against beta-lactamase producing Clostridium paraputrificum by CLSI agar dilution method; format: functional
[46] = tested on: Fusobacterium mortiferum; assay: Antibacterial activity against Fusobacterium mortiferum assessed as resistant isolates by CLSI agar dilution method; format: functional
[47] = tested on: Prevotella intermedia; assay: Antibacterial activity against Prevotella intermedia assessed as susceptible isolates by CLSI agar dilution method; format: functional
[48] = tested on: Clostridium tertium; assay: Antibacterial activity against beta-lactamase producing Clostridium tertium assessed as susceptible isolates by CLSI agar dilution method; format: functional
[49] = tested on: Peptoniphilus asaccharolyticus; assay: Antibacterial activity against beta-lactamase producing Peptoniphilus asaccharolyticus assessed as resistant isolates by CLSI agar dilution method; format: functional
[50] = tested on: Finegoldia magna; assay: Antibacterial activity against beta-lactamase producing Finegoldia magna assessed as resistant isolates by CLSI agar dilution method; format: functional
[51] = tested on: Clostridium septicum; assay: Antibacterial activity against beta-lactamase producing Clostridium septicum assessed as resistant isolates by CLSI agar dilution method; format: functional
[52] = tested on: Peptoniphilus asaccharolyticus; assay: Antibacterial activity against beta-lactamase producing Peptoniphilus asaccharolyticus by CLSI agar dilution method; format: functional
[53] = tested on: Phocaeicola vulgatus; assay: Antibacterial activity against beta-lactamase producing Bacteroides vulgatus by CLSI agar dilution method; format: functional
[54] = tested on: Parvimonas micra; assay: Antibacterial activity against beta-lactamase producing Micromonas micros by CLSI agar dilution method; format: functional
[55] = tested on: Prevotella buccae; assay: Antibacterial activity against Prevotella buccae by CLSI agar dilution method; format: functional; conditions: Segatella buccae
[56] = tested on: Bacteroides fragilis; assay: Antibacterial activity against Bacteroides fragilis by CLSI agar dilution method; format: functional
[57] = tested on: Clostridium perfringens; assay: microbe, parasite or virus in culture; format: functional
[58] = tested on: Prevotella melaninogenica; assay: Antibacterial activity against Prevotella melaninogenica assessed as susceptible isolates by CLSI agar dilution method; format: functional
[59] = tested on: Finegoldia magna; assay: Antibacterial activity against beta-lactamase producing Finegoldia magna by CLSI agar dilution method; format: functional
[60] = tested on: Veillonella parvula; assay: Antibacterial activity against Veillonella parvula by CLSI agar dilution method; format: functional
[61] = tested on: Bacteroides fragilis; assay: Antibacterial activity against Bacteroides fragilis assessed as susceptible isolates by CLSI agar dilution method; format: functional
[62] = tested on: Clostridium tertium; assay: Antibacterial activity against beta-lactamase producing Clostridium tertium by CLSI agar dilution method; format: functional

C[C@@H](O)[C@H]1C(=O)N2C(C(=O)O)=C(S[C@@H]3CN[C@H](CNS(N)(=O)=O)C3)[C@H](C)[C@H]12 [DORIPENEM]
Activity [1]: 0% | Activity [2]: 4% | MIC50 [3]: 0.25 µg/mL (≈ 0.595 µM) | MIC90 [3]: 0.5 µg/mL (≈ 1.19 µM) | Activity [4]: 100% | Activity [5]: 0% | Activity [6]: 7% | Activity [7]: 92% | MIC50 [8]: 0.12 µg/mL (≈ 0.285 µM) | MIC90 [8]: 0.25 µg/mL (≈ 0.595 µM) | Activity [9]: 100% | Activity [10]: 0% | Activity [11]: 0% | Activity [12]: 0% | Activity [13]: 100% | Activity [14]: 100% | MIC50 [15]: 0.12 µg/mL (≈ 0.285 µM) | MIC90 [15]: 0.25 µg/mL (≈ 0.595 µM) | Activity [16]: 4% | Activity [17]: 0% | Activity [18]: 0% | Activity [19]: 100% | Activity [20]: 100% | Activity [21]: 0% | Activity [22]: 97% | Activity [23]: 92% | Activity [24]: 92% | Activity [25]: 0% | Activity [26]: 0% | Activity [27]: 100% | Activity [28]: 4% | MIC [29]: 0.5 µg/mL (≈ 1.19 µM) | MIC50 [29]: 0.5 µg/mL (≈ 1.19 µM) | MIC90 [29]: 2 µg/mL (≈ 4.76 µM) | Activity [30]: 100% | MIC50 [31]: 1 µg/mL (≈ 2.38 µM) | MIC90 [31]: 2 µg/mL (≈ 4.76 µM) | MIC [32]: 0.03 µg/mL (≈ 0.0713 µM) | MIC50 [32]: 0.03 µg/mL (≈ 0.0713 µM) | MIC90 [32]: 2 µg/mL (≈ 4.76 µM) | MIC50 [33]: 1 µg/mL (≈ 2.38 µM) | MIC90 [33]: 2 µg/mL (≈ 4.76 µM) | MIC50 [34]: 0.06 µg/mL (≈ 0.143 µM) | MIC90 [34]: 0.5 µg/mL (≈ 1.19 µM) | MIC50 [35]: 0.25 µg/mL (≈ 0.595 µM) | MIC90 [35]: 0.5 µg/mL (≈ 1.19 µM) | MIC50 [36]: 0.12 µg/mL (≈ 0.285 µM) | MIC90 [36]: 0.25 µg/mL (≈ 0.595 µM) | MIC50 [37]: 0.12 µg/mL (≈ 0.285 µM) | MIC90 [37]: 0.25 µg/mL (≈ 0.595 µM) | Activity [38]: 100% | MIC50 [39]: 0.25 µg/mL (≈ 0.595 µM) | MIC90 [39]: 0.5 µg/mL (≈ 1.19 µM) | Activity [40]: 100% | Activity [41]: 0% | Activity [42]: 0% | Activity [43]: 100% | Activity [44]: 100% | MIC [45]: 0.03 µg/mL (≈ 0.0713 µM) | MIC50 [45]: 0.03 µg/mL (≈ 0.0713 µM) | MIC90 [45]: 2 µg/mL (≈ 4.76 µM) | Activity [46]: 0% | Activity [47]: 100% | Activity [48]: 100% | Activity [49]: 0% | Activity [50]: 0% | Activity [51]: 0% | MIC50 [52]: 0.06 µg/mL (≈ 0.143 µM) | MIC90 [52]: 0.5 µg/mL (≈ 1.19 µM) | MIC50 [53]: 1 µg/mL (≈ 2.38 µM) | MIC90 [53]: 2 µg/mL (≈ 4.76 µM) | MIC50 [54]: 0.06 µg/mL (≈ 0.143 µM) | MIC90 [54]: 0.5 µg/mL (≈ 1.19 µM) | MIC50 [55]: 0.25 µg/mL (≈ 0.595 µM) | MIC90 [55]: 0.5 µg/mL (≈ 1.19 µM) | MIC50 [56]: 0.5 µg/mL (≈ 1.19 µM) | MIC90 [56]: 8 µg/mL (≈ 19 µM) | MIC [57]: 0.03 µg/mL (≈ 0.0713 µM) | MIC50 [57]: 0.03 µg/mL (≈ 0.0713 µM) | MIC90 [57]: 2 µg/mL (≈ 4.76 µM) | Activity [58]: 100% | MIC50 [59]: 0.06 µg/mL (≈ 0.143 µM) | MIC90 [59]: 0.5 µg/mL (≈ 1.19 µM) | MIC [60]: 0.06 µg/mL (≈ 0.143 µM) | Activity [61]: 88% | MIC [62]: 0.03 µg/mL (≈ 0.0713 µM) | MIC50 [62]: 0.03 µg/mL (≈ 0.0713 µM) | MIC90 [62]: 2 µg/mL (≈ 4.76 µM)
